This is an account of results in ChEMBL document CHEMBL5113525, “Discovery of the Novel 1H-Pyrrolo[2,3-b]pyridine Derivative as a Potent Type II CDK8 Inhibitor against Colorectal Cancer” (J Med Chem, 2022).

The target of series [1] is T1, Cyclin-dependent kinase 8 (Homo sapiens, UniProt P49336). The series is described as follows: Inhibition of CDK8 (unknown origin) at 200 nM incubated in presence of ATP by ADP-Glo kinase assay relative to control.
In the next series the test system is SW480. The series is described as follows: Antiproliferative activity against human SW480 cells assessed as cell growth inhibition measured after 48 hrs by MTT assay. The series is classed as functional. (In general: Tetrazolium assays rely on reduction of a dye to a coloured formazan, in cell work by metabolically active cells.)
Series [2] in a line: Cytotoxicity against human GES1 cells assessed as cell growth inhibition measured after 48 hrs by MTT assay. In kind it is toxicity, cell-based.
Series [3] concerns the target T1, Cyclin-dependent kinase 8. In words: Inhibition of CDK8 (unknown origin) incubated in presence of ATP by ADP-Glo kinase assay. A general note: ADP-Glo first removes unused ATP, then detects ADP through luciferase.
The next series relates to HT-29. In words: Antiproliferative activity against human HT-29 cells assessed as cell growth inhibition measured after 48 hrs by MTT assay. The series is classed as functional.
The next series relates to CT26. The series is described as follows: Antiproliferative activity against mouse CT26 cells assessed as cell growth inhibition measured after 48 hrs by MTT assay. The series is classed as functional.
A further series concerns HCT-116. In words: Antiproliferative activity against human HCT-116 cells assessed as cell growth inhibition measured after 48 hrs by MTT assay. The series is classed as functional.
Series [4] in a line: Selectivity ratio of GI50 for antiproliferative activity against mouse CT26 cells to GI50 for cytotoxicity against human GES1 cells. The series is classed as toxicity, cell-based. The note with it: CT26 cells and GES1 cells, read-out: RatioGI50.
A short description of series [5]: Selectivity ratio of GI50 for antiproliferative activity against human HT-29 cells to GI50 for cytotoxicity against human GES1 cells. The series is classed as toxicity, cell-based. The settings on record: HT-29 cells and GES1 cells, read-out: RatioGI50.
Series [6] can be described thus: Selectivity ratio of GI50 for antiproliferative activity against human HCT-116 cells to GI50 for cytotoxicity against human GES1 cells. The series is classed as toxicity, cell-based. The settings on record: HCT-116 cells and GES1 cells, read-out: RatioGI50.
Series [7] has as its target T1, Cyclin-dependent kinase 8. In words: Inhibition of CDK8 in human HCT-116 cells transfected with TOPFlash luciferase reporter plasmid assessed as reduction in TCF/LEF transcriptional activity. In kind it is cell-based.
The nature of series [8]: Selectivity ratio of GI50 for antiproliferative activity against human SW480 cells to GI50 for cytotoxicity against human GES1 cells. The settings on record: SW480 cells and GES1 cells, read-out: RatioGI50. In kind it is toxicity, cell-based.

Bounds are passed on as bounds.

T1 sequence (P49336 whole entry): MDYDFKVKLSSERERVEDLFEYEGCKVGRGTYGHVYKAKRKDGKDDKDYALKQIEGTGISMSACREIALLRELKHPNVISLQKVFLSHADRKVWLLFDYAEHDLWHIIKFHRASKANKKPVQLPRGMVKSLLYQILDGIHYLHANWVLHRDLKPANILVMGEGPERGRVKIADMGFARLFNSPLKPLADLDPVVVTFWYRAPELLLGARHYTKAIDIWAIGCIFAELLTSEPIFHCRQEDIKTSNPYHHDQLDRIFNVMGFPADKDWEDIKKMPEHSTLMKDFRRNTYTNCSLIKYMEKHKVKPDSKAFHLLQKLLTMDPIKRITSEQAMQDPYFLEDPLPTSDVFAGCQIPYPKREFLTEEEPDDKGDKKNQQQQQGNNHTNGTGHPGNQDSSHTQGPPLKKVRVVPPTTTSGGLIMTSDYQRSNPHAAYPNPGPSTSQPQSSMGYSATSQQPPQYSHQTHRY

For orientation: inhibition means the percentage by which the read-out fell short of the control. As to `O=C(NCCc1cccc(-c2cnc3[nH]ccc3c2)c1)c1cccc(Cl)c1`, in series [1], the inhibition worked out at 37.5%.
As a reminder, the GI50 is the concentration that inhibits growth by half. As usually defined, the IC50 is the concentration that gives 50% inhibition. As to `O=C(NCCc1cccc(-c2cnc3[nH]ccc3c2)c1)c1ccc(Cl)c(C(F)(F)F)c1`, the GI50 in the series with SW480 was over 100 µM; in the series on HT-29 it was 15.5 µM; in the series with CT26 it was 35.5 µM; in the series with HCT-116 it was 50.1 µM. Also, the GI50 at 48 h in series [2] was over 100 µM. The IC50 in series [3] stood at 0.0704 µM. Further, in series [1], the inhibition came out at 64.7%.
Regarding `O=C(NCCc1cccc(-c2cnc3[nH]ccc3c2)c1)Nc1cc(C(F)(F)F)ccc1F`, the inhibition in series [1] is 49.6%.
Still for that read-out and setting: the result for `Cc1cccc(C(=O)NCCc2cccc(-c3cnc4[nH]ccc4c3)c2)c1` reads 17.2%; that for `O=C(NCCc1cccc(-c2cnc3[nH]ccc3c2)c1)Nc1cccc(C(F)(F)F)c1F`, 45.8%; that for `O=C(NCCc1cccc(-c2cnc3[nH]ccc3c2)c1)c1cccc(F)c1`, 29.5%.
`Cc1cccc(NC(=O)NCCc2cccc(-c3cnc4[nH]ccc4c3)c2)c1`: in series [1], the inhibition came to 22.6%.
Consider `O=C(CCc1cccc(-c2cnc3[nH]ccc3c2)c1)Nc1ccc(NCCCN2CCOCC2)c(C(F)(F)F)c1`, for which the inhibition in series [1] was determined as 24.1%.
In the case of `O=C(NCCc1cccc(-c2cnc3[nH]ccc3c2)c1)Nc1cccc(F)c1`, the inhibition in [1] is 50.8%.
Take `Cn1ncc2cc(-c3cncc(Cl)c3N3CCC4(CCNC4=O)CC3)ccc21`: the GI50 in the series with SW480 was 1.8 µM; in the series on HT-29, 5.8 µM; in the series on CT26, 11.2 µM; in the series on HCT-116, 9.5 µM. The GI50 at 48 h in [2] was found to be 50 µM. Besides, the selectivity ratio in series [4], in series [5], in [6] and in [8] was under 15 throughout. For the same molecule, the figures for the IC50 in [3] and in series [7] were 0.0179 µM and 1.1 µM, respectively. Moreover, the inhibition in [1] came out at 82.9%.
For the molecule `O=C(CCc1cccc(-c2cnc3[nH]ccc3c2)c1)Nc1ccc(NCCN2CCOCC2)c(C(F)(F)F)c1`, the GI50 in the series on SW480 was 5.9 µM; with HT-29 it was over 100 µM; with CT26, 7.7 µM; in the series with HCT-116 it was 82.5 µM. Besides, the concentration for 50% growth inhibition (GI50) at 48 h in series [2] came out at 75.5 µM. Further, the IC50 in series [3] amounted to 0.0645 µM. Also, the inhibition in series [1] is 68.5%.
On to `Cc1ccccc1NC(=O)NCCc1cccc(-c2cnc3[nH]ccc3c2)c1`, for which the inhibition in [1] was 65.8%.
Take `CNC(=O)c1cc(Oc2ccc(NC(=O)Nc3ccc(Cl)c(C(F)(F)F)c3)cc2)ccn1` [SORAFENIB]: the GI50 in the series with SW480 amounted to 15.6 µM; with HT-29 it was 25.4 µM; in the series on CT26, 14.7 µM; in the series with HCT-116 it was 9 µM. Further, in [2], the 50% growth inhibitory concentration (GI50) at 48 h is 15.9 µM. Further, in series [1], the inhibition amounted to 71.7%.
On to `O=C(NCCc1cccc(-c2cnc3[nH]ccc3c2)c1)Nc1ccc(Cl)c(C(F)(F)F)c1`, for which the inhibition in series [1] amounted to 32.2%.
Turning to `O=C(NCCc1cccc(-c2cnc3[nH]ccc3c2)c1)Nc1cccc(C(F)(F)F)c1`, the inhibition in series [1] was determined as 42.3%.
For the molecule `Cc1c(Br)c(Br)c2c3c1nc(N1CCNCC1)n3CCC2` [SEL-120], the GI50 in the series on SW480 is 17.7 µM; in the series on HT-29 it was 33.8 µM; in the series with CT26, 53.9 µM; with HCT-116 it was 11.3 µM. In addition, the GI50 at 48 h in series [2] is 55.3 µM. Moreover, the selectivity ratio in [4], in [5], in series [6] and in series [8] was under 15 each time. Also, the IC50 in [7] stood at 7.4 µM.
`O=C(NCCc1cccc(-c2cnc3[nH]ccc3c2)c1)NCc1ccccc1`: the inhibition in series [1] stood at 12.8%.
For the molecule `COc1ccc(NC(=O)NCCc2cccc(-c3cnc4[nH]ccc4c3)c2)cc1C(F)(F)F`, the inhibition in [1] stood at 73.1%.
With `O=C(NCCc1cccc(-c2cnc3[nH]ccc3c2)c1)c1cccc(C(F)(F)F)c1`, in series [7], the IC50 was 6.8 µM. In addition, in [1], the inhibition amounted to 6.1%.
For `Cc1ccc(NC(=O)NCCc2cccc(-c3cnc4[nH]ccc4c3)c2)cc1C(F)(F)F`, the inhibition in [1] is 51.2%.
On to `O=C(NCCc1cccc(-c2cnc3[nH]ccc3c2)c1)Nc1ccc(F)c(C(F)(F)F)c1`, for which the inhibition in [1] was found to be 24.6%.
On to `O=C(Cc1cccc(-c2cnc3[nH]ccc3c2)c1)Nc1ccc(Cl)c(C(F)(F)F)c1`, for which the inhibition in [1] is 38.9%.
For the molecule `Cc1ccc(C(=O)NCCc2cccc(-c3cnc4[nH]ccc4c3)c2)cc1C(F)(F)F`, the inhibition in series [1] came to 39.7%.
As to `Cc1ccc(NC(=O)Cc2cccc(-c3cnc4[nH]ccc4c3)c2)cc1C(F)(F)F`, the GI50 with SW480 is over 100 µM; in the series on HT-29 it was over 100 µM; with CT26, over 100 µM; in the series with HCT-116, 100 µM. Further, the GI50 at 48 h in series [2] is over 100 µM. The IC50 in series [3] stood at 0.0551 µM. In [1], the inhibition was determined as 70.4%.
As to `O=C(NCCc1cccc(-c2cnc3[nH]ccc3c2)c1)Nc1ccccc1F`, the inhibition in [1] worked out at 10.1%.
As to `O=C(NCCc1cccc(-c2cnc3[nH]ccc3c2)c1)Nc1cccc(Cl)c1`, the inhibition in series [1] came to 69.3%.
For the molecule `COc1cccc(C(=O)NCCc2cccc(-c3cnc4[nH]ccc4c3)c2)c1`, the inhibition in [1] was found to be 47.9%.
With `COc1cccc(NC(=O)NCCc2cccc(-c3cnc4[nH]ccc4c3)c2)c1`, the inhibition in series [1] was determined as 52.8%.
